Values quoted from earlier work as cited in patent publication US8785725B2, “Method for generating resistance against citrus diseases caused by insects, fungi, oomycetes, bacteria or nematodes” (Institute Valenciano de Investigaciones Agrarias, priority 2009, dated 2014).

For `C=C(C)C1CC=C(C)CC1` (stereo not drawn) [d-limonene, 1-methyl-4-(1-methylethenyl)cyclohexene], the miscibility with alcohol (alcohol) is listed as “miscible with alcohol” and the solubility in water (water) is listed as “insoluble in water”.
